According to patent US20140315933A1, “CHEMICAL COMPOUNDS” (Pfizer Limited, priority 2013, published 2014):

Target: T1, URAT-1 transporter (Homo sapiens, UniProt Q96S37)
T1 construct: expressed in transfected cells
Assay: URAT-1 inhibitor activity: [14C]-uric acid uptake into CHO-URAT1(L)GFP#8 (CHO#8) cells, scintillation proximity
Format: cell-based
In short: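 Scintillation proximity read-out of 30 nM (final) [14C]-uric acid uptake over three hours at room temperature in chloride-free HEPES buffer pH 7.4. Compounds, 0–10 μM final with 0.25% DMSO, were added 15 minutes before substrate; cells were a clonal CHO line with human URAT1(L)-eGFP, preincubated 1 hour in chloride buffer.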

T1 sequence (Q96S37 with tags, fused parts or gaps): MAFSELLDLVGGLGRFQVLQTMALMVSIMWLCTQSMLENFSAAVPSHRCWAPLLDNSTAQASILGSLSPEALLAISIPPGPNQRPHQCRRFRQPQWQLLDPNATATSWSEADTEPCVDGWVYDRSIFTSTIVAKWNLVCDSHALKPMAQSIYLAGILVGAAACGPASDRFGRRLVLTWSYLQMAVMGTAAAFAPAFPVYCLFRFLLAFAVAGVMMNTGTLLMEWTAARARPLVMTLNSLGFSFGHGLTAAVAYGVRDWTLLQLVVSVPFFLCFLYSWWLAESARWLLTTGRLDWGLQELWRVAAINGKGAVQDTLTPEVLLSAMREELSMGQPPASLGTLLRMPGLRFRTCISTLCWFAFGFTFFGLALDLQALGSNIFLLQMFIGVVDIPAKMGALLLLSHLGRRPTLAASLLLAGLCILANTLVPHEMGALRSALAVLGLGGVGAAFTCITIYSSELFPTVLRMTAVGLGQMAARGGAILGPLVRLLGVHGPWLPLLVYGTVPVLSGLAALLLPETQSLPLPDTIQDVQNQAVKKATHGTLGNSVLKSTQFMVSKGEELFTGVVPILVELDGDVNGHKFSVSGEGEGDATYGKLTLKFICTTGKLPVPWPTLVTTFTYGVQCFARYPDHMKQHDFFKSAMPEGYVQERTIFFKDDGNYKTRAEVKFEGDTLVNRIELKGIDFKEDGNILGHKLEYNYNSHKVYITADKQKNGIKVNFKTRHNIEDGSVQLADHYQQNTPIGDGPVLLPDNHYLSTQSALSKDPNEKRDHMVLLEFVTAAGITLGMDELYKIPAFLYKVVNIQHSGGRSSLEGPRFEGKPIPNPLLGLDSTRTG

| Structure (SMILES) | IC50 [µM] |
| --- | --- |
| CCc1ccc(Oc2ccc(S(=O)(=O)Nc3ncc(F)s3)cc2C#N)cc1 [Example 95, 3-cyano-4-(4-ethylphenoxy)-N-(5-fluoro-1,3-thiazol-2-yl)benzenesulfonamide] | > 7.36 |
| CC(C)c1ccccc1Oc1ccc(S(=O)(=O)Nc2ncc(F)s2)cc1C#N [Example 97, 3-cyano-N-(5-fluoro-1,3-thiazol-2-yl)-4-[2-(propan-2-yl)phenoxy]benzenesulfonamide] | 1.17 |
| CCOc1cccc(Oc2ccc(S(=O)(=O)Nc3ncc(F)s3)cc2C#N)c1 [Example 100, 3-cyano-4-(3-ethoxyphenoxy)-N-(5-fluoro-1,3-thiazol-2-yl)benzenesulfonamide] | 0.554 |
| N#Cc1cc(S(=O)(=O)Nc2ncc(F)s2)ccc1Oc1cc(F)ccc1F [Example 102, 3-cyano-4-(2,5-difluorophenoxy)-N-(5-fluoro-1,3-thiazol-2-yl)benzenesulfonamide] | 1.43 |
| CC(C)c1ccc(Oc2ccc(S(=O)(=O)Nc3ncc(F)s3)cc2C#N)cc1 [Example 103, 3-cyano-N-(5-fluoro-1,3-thiazol-2-yl)-4-[4-(propan-2-yl)phenoxy]benzenesulfonamide] | > 6.78 |
| N#Cc1cc(S(=O)(=O)Nc2ncc(F)s2)ccc1Oc1cc(F)cc(F)c1 [Example 106, 3-cyano-4-(3,5-difluorophenoxy)-N-(5-fluoro-1,3-thiazol-2-yl)benzenesulfonamide] | > 1.34 |
| CC(C)c1cccc(Oc2ccc(S(=O)(=O)Nc3ncc(F)s3)cc2C#N)c1 [Example 107, 3-cyano-N-(5-fluoro-1,3-thiazol-2-yl)-4-[3-(propan-2-yl)phenoxy]benzenesulfonamide] | > 6.78 |
| CCc1ccccc1Oc1ccc(S(=O)(=O)Nc2ncc(F)s2)cc1C#N [Example 108, 3-cyano-4-(2-ethylphenoxy)-N-(5-fluoro-1,3-thiazol-2-yl)benzenesulfonamide] | 0.345 |
| N#Cc1cc(S(=O)(=O)Nc2ncc(F)s2)ccc1Oc1cc(F)c(F)cc1F [Example 113, 3-cyano-N-(5-fluoro-1,3-thiazol-2-yl)-4-(2,4,5-trifluorophenoxy)benzenesulfonamide] | 1.12 |
| N#Cc1cc(S(=O)(=O)Nc2ncc(F)s2)ccc1Oc1c(F)ccc(F)c1F [Example 115, 3-cyano-N-(5-fluoro-1,3-thiazol-2-yl)-4-(2,3,6-trifluorophenoxy)benzenesulfonamide] | 1.63 |
| N#Cc1cc(S(=O)(=O)Nc2ncc(F)s2)ccc1Oc1cc(F)c(F)c(F)c1 [Example 118, 3-cyano-N-(5-fluoro-1,3-thiazol-2-yl)-4-(3,4,5-trifluorophenoxy)benzenesulfonamide] | 1.38 |
| N#Cc1cc(S(=O)(=O)Nc2ncc(F)s2)ccc1Oc1ccc(F)c(F)c1F [Example 121, 3-cyano-N-(5-fluoro-1,3-thiazol-2-yl)-4-(2,3,4-trifluorophenoxy)benzenesulfonamide] | 1.04 |
| COc1cc(F)cc(Oc2ccc(S(=O)(=O)Nc3ncc(F)s3)cc2C#N)c1 [Example 122, 3-cyano-4-(3-fluoro-5-methoxyphenoxy)-N-(5-fluoro-1,3-thiazol-2-yl)benzenesulfonamide] | 0.581 |
| N#Cc1cc(S(=O)(=O)Nc2ncc(F)s2)ccc1Oc1cc(F)cc(Cl)c1 [Example 126, 4-(3-chloro-5-fluorophenoxy)-3-cyano-N-(5-fluoro-1,3-thiazol-2-yl)benzenesulfonamide] | 0.699 |
| Cc1c(Oc2ccc(S(=O)(=O)Nc3ncc(F)s3)cc2C#N)ccc(F)c1F [Example 128, 3-cyano-4-(3,4-difluoro-2-(methylphenoxy)-N-5-fluoro-1,3-thiazol-2-yl)benzenesulfonamide] | 1.19 |
| CCc1cc(F)ccc1Oc1ccc(S(=O)(=O)Nc2ncc(F)s2)cc1C#N [Example 131, 3-cyano-4-(2-ethyl-4-fluorophenoxy)-N-(5-fluoro-1,3-thiazol-2-yl)benzenesulfonamide] | 0.297 |
| N#Cc1cccc(Oc2ccc(S(=O)(=O)Nc3ncc(F)s3)cc2C#N)c1 [Example 132, 3-cyano-4-(3-cyanophenoxy)-N-(5-fluoro-1,3-thiazol-2-yl)benzenesulfonamide] | 2.6 |
| N#Cc1cc(S(=O)(=O)Nc2ncc(F)s2)ccc1Oc1cccc(C(F)(F)F)c1 [Example 133, 3-cyano-N-(5-fluoro-1,3-thiazol-2-yl)-4-[3-(trifluoromethyl)phenoxy]benzenesulfonamide] | 1.58 |
| N#Cc1cc(S(=O)(=O)Nc2ncc(F)s2)ccc1Oc1cc(C(F)(F)F)ccc1F [Example 134, 3-cyano-N-(5-fluoro-1,3-thiazol-2-yl)-4-[2-fluoro-5-(trifluoromethyl)phenoxy]benzenesulfonamide] | 0.718 |

The remaining lines, values ahead:

| IC50 [µM] | Structure (SMILES) |
| --- | --- |
| 0.621 | N#Cc1cc(S(=O)(=O)Nc2ncc(F)s2)ccc1Oc1c(F)cccc1F [Example 94, 3-cyano-4-(2,6-difluorophenoxy)-N-(5-fluoro-1,3-thiazol-2-yl)benzenesulfonamide] |
| 0.675 | N#Cc1cc(S(=O)(=O)Nc2ncc(F)s2)ccc1Oc1ccccc1Cl [Example 96, 4-(2-chlorophenoxy)-3-cyano-N-(5-fluoro-1,3-thiazol-2-yl)benzenesulfonamide] |
| > 1.69 | N#Cc1cc(S(=O)(=O)Nc2ncc(F)s2)ccc1Oc1ccc(Cl)cc1 [Example 98, 4-(4-chlorophenoxy)-3-cyano-N-(5-fluoro-1,3-thiazol-2-yl)benzenesulfonamide] |
| 1.63 | CCc1cccc(Oc2ccc(S(=O)(=O)Nc3ncc(F)s3)cc2C#N)c1 [Example 99, 3-cyano-4-(3-ethylphenoxy)-N-(5-fluoro-1,3-thiazol-2-yl)benzenesulfonamide] |
| 1.76 | Cc1ccc(Oc2ccc(S(=O)(=O)Nc3ncc(F)s3)cc2C#N)c(C)c1 [Example 101, 3-cyano-4-(2,4-dimethylphenoxy)-N-(5-fluoro-1,3-thiazol-2-yl)benzenesulfonamide] |
| 2.62 | N#Cc1cc(S(=O)(=O)Nc2ncc(F)s2)ccc1Oc1ccccc1F [Example 104, 3-cyano-4-(2-fluorophenoxy)-N-(5-fluoro-1,3-thiazol-2-yl)benzenesulfonamide] |
| > 1.79 | Cc1ccc(F)cc1Oc1ccc(S(=O)(=O)Nc2ncc(F)s2)cc1C#N [Example 105, 3-cyano-4-(5-fluoro-2-methylphenoxy)-N-(5-fluoro-1,3-thiazol-2-yl)benzenesulfonamide] |
| 0.552 | COc1cccc(Oc2ccc(S(=O)(=O)Nc3ncc(F)s3)cc2C#N)c1 [Example 109, 3-cyano-N-(5-fluoro-1,3-thiazol-2-yl)-4-(3-methoxyphenoxy)benzenesulfonamide] |
| > 7.54 | N#Cc1cc(S(=O)(=O)Nc2ncc(F)s2)ccc1Oc1cccc(Cl)c1 [Example 110, 4-(3-chlorophenoxy)-3-cyano-N-(5-fluoro-1,3-thiazol-2-yl)benzenesulfonamide] |
| 0.871 | N#Cc1cc(S(=O)(=O)Nc2ncc(F)s2)ccc1Oc1ccc(F)c(Cl)c1 [Example 111, 4-(3-chloro-4-fluorophenoxy)-3-cyano-N-(5-fluoro-1,3-thiazol-2-yl)benzenesulfonamide] |
| 4.03 | Cc1ccccc1Oc1ccc(S(=O)(=O)Nc2ncc(F)s2)cc1C#N [Example 112, 3-cyano-N-(5-fluoro-1,3-thiazol-2-yl)-4-(2-methylphenoxy)benzenesulfonamide] |
| 4.41 | N#Cc1cc(S(=O)(=O)Nc2ncc(F)s2)ccc1Oc1cccc(F)c1F [Example 114, 3-cyano-4-(2,3-difluorophenoxy)-N-(5-fluoro-1,3-thiazol-2-yl)benzenesulfonamide] |
| > 5.31 | N#Cc1cc(S(=O)(=O)Nc2ncc(F)s2)ccc1Oc1ccc(Cl)cc1F [Example 116, 4-(4-chloro-2-fluorophenoxy)-3-cyano-N-(5-fluoro-1,3-thiazol-2-yl)benzenesulfonamide] |
| 1.44 | Cc1cc(Cl)ccc1Oc1ccc(S(=O)(=O)Nc2ncc(F)s2)cc1C#N [Example 117, 4-(4-chloro-2-methylphenoxy)-3-cyano-N-(5-fluoro-1,3-thiazol-2-yl)benzenesulfonamide] |
| 1.57 | N#Cc1cc(S(=O)(=O)Nc2ncc(F)s2)ccc1Oc1cccc(Cl)c1F [Example 119, 4-(3-chloro-2-fluorophenoxy)-3-cyano-N-(5-fluoro-1,3-thiazol-2-yl)benzenesulfonamide] |
| 1.32 | Cc1ccc(Oc2ccc(S(=O)(=O)Nc3ncc(F)s3)cc2C#N)c(F)c1F [Example 120, 3-cyano-4-(2,3-difluoro-4-methylphenoxy)-N-(5-fluoro-1,3-thiazol-2-yl)benzenesulfonamide] |
| 1.25 | Cc1ccc(F)c(Oc2ccc(S(=O)(=O)Nc3ncc(F)s3)cc2C#N)c1F [Example 123, 3-cyano-4-(2,6-difluoro-3-methylphenoxy)-N-(5-fluoro-1,3-thiazol-2-yl)benzenesulfonamide] |
| > 6.36 | Cc1ccc(Oc2ccc(S(=O)(=O)Nc3ncc(F)s3)cc2C#N)c(Cl)c1 [Example 124, 4-(2-chloro-4-methylphenoxy)-3-cyano-N-(5-fluoro-1,3-thiazol-2-yl)benzenesulfonamide] |
| 0.551 | N#Cc1cc(S(=O)(=O)Nc2ncc(F)s2)ccc1Oc1c(F)cccc1Cl [Example 125, 4-(2-chloro-6-fluorophenoxy)-3-cyano-N-(5-fluoro-1,3-thiazol-2-yl)benzenesulfonamide] |
| 2.29 | Cc1cccc(Cl)c1Oc1ccc(S(=O)(=O)Nc2ncc(F)s2)cc1C#N [Example 127, 4-(2-chloro-6-methylphenoxy)-3-cyano-N-(5-fluoro-1,3-thiazol-2-yl)benzenesulfonamide] |
| 0.48 | Cc1ccc(Cl)cc1Oc1ccc(S(=O)(=O)Nc2ncc(F)s2)cc1C#N [Example 129, 4-(5-chloro-2-methylphenoxy)-3-cyano-N-(5-fluoro-1,3-thiazol-2-yl)benzenesulfonamide] |
| 0.414 | N#Cc1cc(S(=O)(=O)Nc2ncc(F)s2)ccc1Oc1ccc(F)cc1Cl [Example 130, 4-(2-chloro-4-fluorophenoxy)-3-cyano-N-(5-fluoro-1,3-thiazol-2-yl)benzenesulfonamide] |
